Laboratory results as given in patent publication US4581352A, “Thienothienylglycyl cephalosporin derivatives” (priority 1984, dated 1986).
In brackets after ≈: the same amount, converted by molar mass. Like-named read-outs stand apart in the source and are kept apart here.

What was measured:
Format in all cases: cell-based
[1] = test system: Staph. aureus; assay: in vitro agar dilution assay (MIC), Staph. aureus; conditions: Staphylococcus aureus
[2] = test system: Staph. epi; assay: in vitro agar dilution assay (MIC), Staph. epi; conditions: read-out: Agar Dilution MIC
[3] = test system: Strep. A; assay: in vitro agar dilution assay (MIC), Strep. A; conditions: read-out: Agar Dilution MIC
Description: (§1) A typical and preferred compound provided by this invention is 7-(thieno[3,2-b]thien-2-yl)glycylamido-3-methyl-3-cephem-4-carboxylic acid, the compound illustrated in Example 1. The antibacterial activity of this compound and others of the invention has been determined in standard in vitro agar dilution assays against a variety of gram positive microorganisms. The following Tables present typical minimum inhibitory concentrations (MIC's) in μg/ml for several compounds of the invention when evaluated against the indicated microorganisms. MIC's for several known compounds are also presented for comparison.

[4] = test system: Strep. PN; assay: in vitro agar dilution assay (MIC), Strep. PN; conditions: read-out: Agar Dilution MIC
Description: as §1

[5] = test system: Strep. D; assay: in vitro agar dilution assay (MIC), Strep. D; conditions: for MIC: read-out: Agar Dilution MIC
Description: as §1

[6] = test system: H. influ.; assay: in vitro agar dilution assay (MIC), H. influ.
[7] = test system: E. coli; assay: in vitro agar dilution assay (MIC), E. coli; conditions: Escherichia coli
[8] = test system: Klebsiella; assay: in vitro agar dilution assay (MIC), Klebsiella
[9] = read-out: Agar Dilution MIC, Staph. aureus strain S13E
[10] = Klebsiella strain X26, read-out: Agar Dilution MIC
[11] = Klebsiella strain X68, read-out: Agar Dilution MIC
[12] = Staph. aureus strain X400, read-out: Agar Dilution MIC
[13] = Staph. aureus strain X1.1, read-out: Agar Dilution MIC
[14] = Klebsiella strain KAE, read-out: Agar Dilution MIC
[15] = Staph. aureus strain V41, read-out: Agar Dilution MIC

| SMILES | MIC [1, 9] [µg/mL] | MIC ([2]; Staph. epi strain EPI1) [µg/mL] | MIC ([3]; Strep. A strain C203) [µg/mL] | MIC ([4]; Strep. PN strain PARK) [µg/mL] | MIC ([5]; Strep. D strain 2041) [µg/mL] | MIC ([6]; H. influ. strain 76) [µg/mL] | MIC ([6]; H. influ. strain C.L.) [µg/mL] | MIC ([7]; E. coli strain EC14) [µg/mL] | MIC ([7]; E. coli strain N10) [µg/mL] | MIC [8, 10] [µg/mL] | MIC [8, 11] [µg/mL] | MIC ([7]; E. coli strain TEM) [µg/mL] | MIC [1, 12] [µg/mL] | MIC ([1]; read-out: Agar Dilution MIC) [µg/mL] | MIC [1, 13] [µg/mL] | MIC ([2]; Staph. epi strain 222) [µg/mL] | MIC ([5]; Strep. D strain X66) [µg/mL] | MIC [8, 14] [µg/mL] | MIC [1, 15] [µg/mL] | other results |
| --- | --- | --- | --- | --- | --- | --- | --- | --- | --- | --- | --- | --- | --- | --- | --- | --- | --- | --- | --- | --- |
| CC1(C)S[C@@H]2[C@H](NC(=O)[C@H](N)c3ccccc3)C(=O)N2[C@H]1C(=O)O [Ampicillin, reference compound] | 64 (≈ 183 µM) | 8 (≈ 22.9 µM) | 0.03 (≈ 0.0859 µM) | 0.03 (≈ 0.0859 µM) | 2 (≈ 5.72 µM) | 16 (≈ 45.8 µM) | 0.5 (≈ 1.43 µM) | 4 (≈ 11.4 µM) | 8 (≈ 22.9 µM) | 16 (≈ 45.8 µM) | 16 (≈ 45.8 µM) | – | – | – | – | – | – | – | – | MIC [5]: 4 µg/mL (≈ 11.4 µM) |
| CC1=C(C(=O)O)N2C(=O)[C@@H](NC(=O)[C@H](N)c3ccccc3)[C@H]2SC1 [Cephalexin, reference compound] | 128 (≈ 368 µM) | 32 (≈ 92.1 µM) | – | – | – | – | – | 4 (≈ 11.5 µM) | 8 (≈ 23 µM) | – | – | 8 (≈ 23 µM) | – | – | – | – | – | – | – | MIC [2]: 8 µg/mL (≈ 23 µM); MIC [3]: 0.5 µg/mL (≈ 1.44 µM); MIC [4]: 2 µg/mL (≈ 5.76 µM); Agar Dilution MIC ([5]; Strep. D strain 2041): 128 µg/mL; MIC [5]: 128 µg/mL (≈ 368 µM); MIC ([8]; read-out: Agar Dilution MIC, Klebsiella strain KAE): 128 µg/mL (≈ 368 µM); MIC ([8]; read-out: Agar Dilution MIC, Klebsiella strain X26): 4 µg/mL (≈ 11.5 µM); MIC ([8]; read-out: Agar Dilution MIC, Klebsiella strain X68): 8 µg/mL (≈ 23 µM) |
| CC1=C(C(=O)O)N2C(=O)[C@@H](NC(=O)[C@H](N)c3cc4sccc4s3)[C@H]2SC1 [Ex. 1A, 7-D-(thieno[3,2-b]thien-2-yl)-glycylamido-3-methyl-3-cephem-4-carboxylic acid] | 64 (≈ 156 µM) | 16 (≈ 39.1 µM) | 0.25 (≈ 0.61 µM) | 1 (≈ 2.44 µM) | > 64 | 2 (≈ 4.88 µM) | 64 (≈ 156 µM) | > 64 | > 64 | 8 (≈ 19.5 µM) | > 64 | > 64 | > 64 | 32 (≈ 78.1 µM) | 0.5 (≈ 1.22 µM) | 2 (≈ 4.88 µM) | > 64 | > 64 | – | – |
| CC1=C(C(=O)O)N2C(=O)[C@@H](NC(=O)[C@@H](N)c3cc4sccc4s3)[C@H]2SC1 [Ex. 1B, 7-L-(thieno[3,2-b]thien-2-yl)-glycylamido-3-methyl-3-cephem-4-carboxylic acid] | 64 (≈ 156 µM) | 64 (≈ 156 µM) | 16 (≈ 39.1 µM) | 16 (≈ 39.1 µM) | > 64 | – | 64 (≈ 156 µM) | > 64 | > 64 | > 64 | > 64 | > 64 | > 64 | 32 (≈ 78.1 µM) | 8 (≈ 19.5 µM) | 16 (≈ 39.1 µM) | > 64 | > 64 | – | – |
| CC1=C(C(=O)O)N2C(=O)[C@@H](NC(=O)[C@@H](N)c3cc4sc(Cl)cc4s3)[C@H]2SC1 [Ex. 2A, 7-L-(5-chlorothieno[3,2-b]thien-2-yl)glycylamido-3-methyl-3-cephem-4-carboxylic acid] | 32 (≈ 72.1 µM) | 16 (≈ 36 µM) | 1 (≈ 2.25 µM) | 2 (≈ 4.5 µM) | > 64 | 2 (≈ 4.5 µM) | 64 (≈ 144 µM) | > 64 | > 64 | 64 (≈ 144 µM) | > 64 | > 64 | > 64 | – | 1 (≈ 2.25 µM) | 2 (≈ 4.5 µM) | > 64 | > 64 | 64 (≈ 144 µM) | – |
| CC1=C(C(=O)O)N2C(=O)[C@@H](NC(=O)[C@H](N)c3cc4sc(Cl)cc4s3)[C@H]2SC1 [Ex. 2B, 7-D-(5-chlorothieno[3,2-b]thien-2-yl)glycylamido-3-methyl-3-cephem-4-carboxylic acid] | – | 4 (≈ 9.01 µM) | 0.125 (≈ 0.282 µM) | 0.25 (≈ 0.563 µM) | 64 (≈ 144 µM) | 2 (≈ 4.5 µM) | 32 (≈ 72.1 µM) | > 64 | > 64 | 16 (≈ 36 µM) | > 64 | > 64 | > 64 | – | 0.25 (≈ 0.563 µM) | 0.5 (≈ 1.13 µM) | > 64 | > 64 | 16 (≈ 36 µM) | – |
| CC1=C(C(=O)O)N2C(=O)[C@@H](NC(=O)[C@H](N)c3cc4ccsc4s3)[C@H]2SC1 [Ex. 3A, 7-D-(thieno[2,3-b]thien-2-yl)-glycylamido-3-methyl-3-cephem-4-carboxylic acid] | 16 (≈ 39.1 µM) | 4 (≈ 9.77 µM) | 0.25 (≈ 0.61 µM) | 0.5 (≈ 1.22 µM) | > 64 | 2 (≈ 4.88 µM) | – | 64 (≈ 156 µM) | > 64 | 8 (≈ 19.5 µM) | > 64 | > 64 | > 64 | 32 (≈ 78.1 µM) | 0.5 (≈ 1.22 µM) | 1 (≈ 2.44 µM) | > 64 | > 64 | – | – |
| CC1=C(C(=O)O)N2C(=O)[C@@H](NC(=O)[C@@H](N)c3cc4ccsc4s3)[C@H]2SC1 [Ex. 3B, 7-L-(thieno[2,3-b]thien-2-yl)-glycylamido-3-methyl-3-cephem-4-carboxylic acid] | 64 (≈ 156 µM) | 8 (≈ 19.5 µM) | 1 (≈ 2.44 µM) | 2 (≈ 4.88 µM) | > 64 | 1 (≈ 2.44 µM) | 16 (≈ 39.1 µM) | > 64 | > 64 | 16 (≈ 39.1 µM) | > 64 | > 64 | > 64 | – | 1 (≈ 2.44 µM) | 2 (≈ 4.88 µM) | > 64 | > 64 | 64 (≈ 156 µM) | – |
